In brackets after ≈: the same amount, converted by molar mass.
How the values were obtained:
[1] = Unbound AUC (0 to infinity) in Sprague-Dawley rat at 1.9 mg/kg, iv by LC-MS analysis; type: ADME, organism-based; details: in vivo
[2] = in vivo; details: Sprague-Dawley, rat, po, 18.2 mg/kg
[3] = system: Plasmodium falciparum; test: Antiplasmodial activity against Plasmodium falciparum 3D7 infected in RBC assessed as reduction in parasitemia incubated for 72 hrs by SYBR green dye-based assay; type: functional, organism-based; details: rbc
[4] = AUC (0 to infinity) in Sprague-Dawley rat at 18.2 mg/kg, po measured over 24 hrs by LC-MS analysis; type: ADME, organism-based; set-up: route oral, dose 18.2 mg/kg, time >24; details: in vivo
[5] = Unbound Cmax in Sprague-Dawley rat at 18.2 mg/kg, po measured over 24 hrs by LC-MS analysis; type: ADME, organism-based; details: in vivo
[6] = Inhibition of N-terminal His6-tagged dog DHODH expressed in Escherichia coli BL21 using L-DHO as substrate and CoQ as co-substrate by DCIP dye based spectrophotometric assay; set-up: species or system Canis lupus familiaris
[7] = Kinetic solubility of compound in phosphate buffer at pH 6.5 measured after 30 mins by HPLC-UV based analysis; type: physicochemical; details: phosphate buffer, pH 6.5, read-out: Kinetic_solubility
[8] = Apparent half-life in Swiss mouse at 20 mg/kg, po administered as single dose via gavage measured over 24 hrs by LC-MS analysis; type: ADME, organism-based; details: in vivo
[9] = Intrinsic clearance in rat liver microsomes assessed per mg protein at 1 uM by LC-MS analysis; type: ADME, Microsome; details: microsomes, 1 µM
[10] = AUC (0 to infinity) in Swiss mouse at 20 mg/kg, po administered as single dose via gavage measured over 24 hrs by LC-MS analysis; type: ADME, organism-based; set-up: route oral, dose 20 mg/kg, time >24; details: in vivo
[11] = Lipophilicity, logD of the compound at pH 7.4; type: physicochemical; details: buffer
[12] = Intrinsic clearance in mouse liver microsomes at 1 uM by LC-MS analysis; type: ADME, Microsome
[13] = Solubility of compound in FeSSIF at pH 5 measured after 5 to 6 hrs by HPLC-UV based analysis; type: physicochemical; details: simulated gi fluid, time 5-6 hrs
[14] = system: Plasmodium falciparum; test: Antiplasmodial activity against Plasmodium falciparum 3D7 infected in po dosed NSG mouse assessed as reduction in parasitemia administered once daily for 4 consecutive days starting from day 3 post-infection and measured 24 hrs post last dose by flow cytometric analysis; type: functional; details: 3D7, po, 96 h, time 4 day
[15] = Apparent half-life in Sprague-Dawley rat at 1.9 mg/kg, iv administered as infusion for 10 mins by LC-MS analysis; type: ADME, organism-based; details: in vivo, read-out: t1/2(app) (converted)
[16] = Oral bioavailability in Sprague-Dawley rat at 18.2 mg/kg measured over 24 hrs by LC-MS analysis; type: ADME, organism-based; details: in vivo
[17] = Unbound AUC (0 to infinity) in Sprague-Dawley rat at 18.2 mg/kg, po measured over 24 hrs by LC-MS analysis; type: ADME, organism-based; details: in vivo
[18] = Inhibition of N-terminal His6-tagged Plasmodium vivax DHODH expressed in Escherichia coli BL21 using L-DHO as substrate and CoQ as co-substrate by DCIP dye based spectrophotometric assay
[19] = Unbound Cmax in Swiss mouse at 20 mg/kg, po administered as single dose via gavage measured over 24 hrs by LC-MS analysis; type: ADME, organism-based; details: in vivo
[20] = Unbound clearance in Sprague-Dawley rat at 1.9 mg/kg, iv administered as infusion for 10 mins by LC-MS analysis; type: ADME, organism-based; details: in vivo
[21] = Elimination half-life in Swiss mouse at 20 mg/kg, po administered as single dose via gavage measured over 24 hrs by LC-MS analysis; type: ADME, organism-based; details: in vivo, read-out: beta t1/2 (converted)
[22] = Intrinsic clearance in human pooled liver microsomes assessed per mg protein at 1 uM by LC-MS analysis; type: ADME, Microsome; details: microsomes, 1 µM
[23] = Unbound AUC (0 to infinity) in Swiss mouse at 20 mg/kg, po administered as single dose via gavage measured over 24 hrs by LC-MS analysis; type: ADME, organism-based; details: in vivo
[24] = Protein binding in Swiss mouse plasma at 20 mg/kg, po administered as single dose via gavage measured over 24 hrs by LC-MS analysis; type: ADME, organism-based; details: read-out: PPB (converted)
[25] = Tmax in Swiss mouse at 20 mg/kg, po administered as single dose via gavage measured over 24 hrs by LC-MS analysis; type: ADME, organism-based; details: in vivo
[26] = Inhibition of N-terminal His6-tagged Plasmodium falciparum DHODH expressed in Escherichia coli BL21 using L-DHO as substrate and CoQ as co-substrate by DCIP dye based spectrophotometric assay
[27] = biological target: Cytochrome P450 2C19 (Homo sapiens, UniProt P33261); test: Inhibition of CYP2C19 in human liver microsomes using isoform-specific probe substrates in presence of NADPH-generating system by LC-MS analysis; type: ADME
Sequence of Cytochrome P450 2C19 (P33261 whole entry, canonical isoform): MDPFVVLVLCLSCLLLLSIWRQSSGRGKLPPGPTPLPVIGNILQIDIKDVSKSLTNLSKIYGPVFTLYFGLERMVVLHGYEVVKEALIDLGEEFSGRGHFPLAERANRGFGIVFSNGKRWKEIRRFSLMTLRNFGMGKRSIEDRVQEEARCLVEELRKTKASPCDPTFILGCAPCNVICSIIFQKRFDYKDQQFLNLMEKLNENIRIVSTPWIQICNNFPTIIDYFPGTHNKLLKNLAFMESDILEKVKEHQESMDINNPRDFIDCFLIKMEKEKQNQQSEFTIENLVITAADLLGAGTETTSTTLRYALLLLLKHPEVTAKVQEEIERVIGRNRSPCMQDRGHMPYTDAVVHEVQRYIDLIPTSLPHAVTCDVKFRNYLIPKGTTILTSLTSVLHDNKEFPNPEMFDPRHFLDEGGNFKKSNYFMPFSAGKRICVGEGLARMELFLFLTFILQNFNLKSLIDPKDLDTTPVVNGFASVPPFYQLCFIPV

[28] = Cmax in Sprague-Dawley rat at 18.2 mg/kg, po measured over 24 hrs by LC-MS analysis; type: ADME, organism-based; set-up: route oral, dose 18.2 mg/kg, time >24; details: in vivo
[29] = Protein binding in Sprague-Dawley rat plasma at 1.9 mg/kg, iv administered as infusion for 10 mins by LC-MS analysis; type: ADME, organism-based; details: read-out: PPB (converted)
[30] = Protein binding in human plasma assessed as bound fraction by LC-MS analysis based ultracentrifugation assay; type: ADME, cell-free; details: read-out: PPB (converted)
[31] = Cmax in Swiss mouse at 20 mg/kg, po administered as single dose via gavage measured over 24 hrs by LC-MS analysis; type: ADME, organism-based; set-up: route oral, dose 20 mg/kg, time >24; details: in vivo
[32] = Volume of distribution at steady state in Sprague-Dawley rat at 1.9 mg/kg, iv administered as infusion for 10 mins by LC-MS analysis; type: ADME, organism-based; details: in vivo
[33] = AUC (0 to infinity) in Sprague-Dawley rat at 1.9 mg/kg, iv administered as infusion for 10 mins by LC-MS analysis; type: ADME, organism-based; set-up: route intravenous, dose 1.9 mg/kg, time 10 min; details: in vivo
[34] = Unbound volume of distribution at steady state in Sprague-Dawley rat at 1.9 mg/kg, iv administered as infusion for 10 mins by LC-MS analysis; type: ADME, organism-based; details: in vivo
[35] = Solubility of compound in FaSSIF at pH 6.5 measured after 5 to 6 hrs by HPLC-UV based analysis
[36] = Protein binding in rat plasma assessed as bound fraction by LC-MS analysis based ultracentrifugation assay; type: ADME, cell-free; details: read-out: PPB (converted)

Cc1cc(NC2CCc3cc(Cl)ccc3C2)n2nc(C(C)(F)F)nc2n1 (stereo in doubt)
fAUC [1]: 0.19 µM·h | Tmax at 24 h [2]: 4 h | EC50 [3]: 3.8 nM | AUC(0-inf) [4]: 227 µM·h | fCmax [5]: 0.19 µM | IC50 [6]: > 100000 nM | solubility kinetic at 0.5 h [7]: 3.1 µg/mL (≈ 8.2 µM) | t1/2(app) [8]: 1.9 h | Intrinsic clearance in rat liver microsomes (uL/min/mg protein) [9]: 33 µL/min | AUC [10]: 19.7 µM·h | logD [11]: 3.9 | intrinsic clearance [12]: 44 µL/min | solubility [13]: 211 µg/mL (≈ 558 µM) | ED90 [14]: > 30 mg/kg | half-life [15]: 7.1 h | bioavailability [16]: 100% | fAUC [17]: 1.82 µM·h | IC50 [18]: 29 nM | fCmax [19]: 0.06 µM | CL free [20]: 438 mL/min/kg | half-life [21]: 2 h | microsomal intrinsic clearance [22]: < 7 µL/min | fAUC [23]: 0.16 µM·h | fraction unbound at 24 h [24]: 0.008 | Tmax [25]: 1 h | IC50 [26]: 3.7 nM | IC50 [27]: > 20000 nM | Cmax [28]: 23.8 µM | fraction unbound at 10 min [29]: 0.008 | fraction unbound [30]: 0.012 | Cmax [31]: 7 µM | Vdss [32]: 1.5 L/kg | AUC(0-inf) [33]: 24 µM·h | fVdss [34]: 188 L/kg | solubility [35]: 47 µg/mL (≈ 124 µM) | fraction unbound [36]: 0.008

— ChEMBL document CHEMBL4706474, “Tetrahydro-2-naphthyl and 2-Indanyl Triazolopyrimidines Targeting Plasmodium falciparum Dihydroorotate Dehydrogenase Display Potent and Selective Antimalarial Activity” (J Med Chem, 2016)
